Results taken from patent publication US7964643B2, “Aryl alkyl sulfonamides as therapeutic agents for the treatment of bone conditions” (The University Court of the University of Aberdeen, priority 2004, dated 2011).

Tested on: J774 macrophage cell line
Assay: Alamar Blue macrophage J774 viability assay
Format: cell-based
Settings: Mus musculus, J774, 72 h, 72 hours culture with compound, Alamar Blue, read-out: IC50 (J774)
Procedure: Initial screening of candidate compounds was performed using viability assays, on cultures of the macrophage cell line J774, which have been used before as a model system for osteoclast survival (see, e.g., Luckman et al., 1998). The assays are based on the survival of the J774 macrophage cell line; macrophages are closely related to osteoclasts, and contain similar high levels of esterase activity.
J774 cells were plated at 10^4 cells per well in 150 μL αMEM (α Modified Eagle Medium) in 96-well plates and grown overnight. The next day, compounds were added to the cultures, and culture was continued for another 72 hours. At the end of the culture period cell survival was determined using an Alamar Blue assay as previously described (see, e.g., Nociari et al., 1998).
Alamar Blue is an oxidation-reduction sensitive indicator. The dye itself is in the oxidised state, which is blue and non-fluorescent. The dye can accept electrons from reducing species, such as NADPH and FADH, to form a reduced dye species, which is red and fluorescent. Thus the transformation from oxidised form to reduced form can be measured by fluorimetric or colourimetric means. For fluorescence measurements, 530-560 nm excitation and 590 nm emission wavelengths are typically used. For colourimetric measurements, absorbance is measured at 570 nm (reduced form) and 600 nm (oxidised form) and a simple calculation performed to determine the relative quantities of the two species.
A high ratio of the reducing species, NADPH and FADH, to the corresponding oxidised species, NADP and FAD, is an indicator that cells are proliferating and viable. A low ratio indicates cells that are quiescent or non-viable.
Briefly, Alamar Blue (Biosource International) was added undiluted to the each well (1:10 v/v, 15 μL). The plate was incubated at 37° C. for 3-4 hours and the fluorescence was measured at 570 nm, with a 25 nm bandwidth. A high reading indicated cells with normal viability, and a low reading indicates cells that have been damaged and are no longer proliferating normally. The controls gave a high fluorescence reading, indicating a high number of live, healthy cells. A potent test compound gave a low fluorescence reading. The average results for each test compound (n=5) were expressed as a percent (%) of the average control value.
Addition of Compounds. All of the compounds studied were made up as 100 mM solutions in DMSO. These stock solutions were then diluted 100 or 1000× in culture medium (αMEM). From these 1 mM or 100 μM solutions, convenient quantities (3-15 μL) were added directly to the wells so as to give the desired final compound concentration.

SMILES | IC50 [µM]
Cc1cccc(-c2ccc(S(=O)(=O)NCCCCO)cc2)c1 [ABD-308, 3′-Methylbiphenyl-4-sulfonic acid-(4-hydroxybutyl)-amide] | 28 ± 3
O=S(=O)(NCCCCO)c1ccc(-c2ccc(F)cc2)cc1 [ABD-200, 4′-Fluorobiphenyl-4-sulfonic acid-(4-hydroxybutyl)-amide] | 8 ± 2.5
O=S(=O)(NCCCCO)c1ccc(-c2ccc(C(F)(F)F)cc2)cc1F [ABD-302, 3-Fluoro-4′-trifluoromethylbiphenyl-4-sulfonic acid-(4-hydroxybutyl)-amide] | 5.5 ± 1.5
O=S(=O)(NCCCCO)c1ccc(-c2ccccc2)cc1 [ABD-155, Biphenyl-4-sulfonic acid-(4-hydroxybutyl)-amide] | 18 ± 3
O=[N+]([O-])c1ccccc1-c1ccc(S(=O)(=O)NCCCCO)c(C(F)(F)F)c1 [ABD-365, 2′-Nitro-3-trifluoromethylbiphenyl-4-sulfonic acid-(4-hydroxybutyl)-amide] | 0.3 ± 0.1
O=S(=O)(NCCCCCO)c1ccc(-c2ccc(O)cc2)cc1 [ABD-277, 4′-Hydroxybiphenyl-4-sulfonic acid-(5-hydroxypentyl)-amide] | 21 ± 3
Cc1ccc(-c2ccc(S(=O)(=O)NCCCCCO)cc2)cc1 [ABD-260, 4′-Methylbiphenyl-4-sulfonic acid-(5-hydroxypentyl)-amide] | 12 ± 2
O=C(O)c1ccc(-c2ccc(S(=O)(=O)NCCCCCO)cc2)cc1 [ABD-271, 4′-Carboxybiphenyl-4-sulfonic acid-(5-hydroxypentyl)-amide] | 33 ± 3
O=S(=O)(NCCCCCO)c1ccc(-c2ccc(F)c(F)c2)cc1 [ABD-257, 3′,4′-Difluorobiphenyl-4-sulfonic acid-(5-hydroxypentyl)-amide] | 16 ± 3
Cc1cc(S(=O)(=O)NCCCCO)ccc1-c1ccc(F)cc1 [ABD-320, 4′-Fluoro-2-methylbiphenyl-4-sulfonic acid-(4-hydroxybutyl)-amide] | 2.5 ± 0.2
O=S(=O)(NCCCCCO)c1ccc(-c2ccccc2C(F)(F)F)cc1 [ABD-284, 2′-Trifluoromethylbiphenyl-4-sulfonic acid-(5-hydroxypentyl)-amide] | 6 ± 1.5
O=S(=O)(NCCCCO)c1ccc(-c2ccccc2I)cc1 [ABD-275, 2′-Iodobiphenyl-4-sulfonic acid-(4-hydroxybutyl)-amide] | 5.5 ± 1.5
O=[N+]([O-])c1ccccc1-c1ccc(S(=O)(=O)NCCCCO)cc1 [ABD-227, 2′-Nitrobiphenyl-4-sulfonic acid-(4-hydroxybutyl)-amide] | 2 ± 0.5
O=S(=O)(NCCCCO)c1ccc(-c2ccc(C(F)(F)F)cc2)cc1 [ABD-246, 4′-Trifluoromethylbiphenyl-4-sulfonic acid-(4-hydroxybutyl)-amide] | 5 ± 1
O=S(=O)(NCCCCO)c1ccc(-c2ccc(C(F)(F)F)cc2)c(F)c1 [ABD-294, 2-Fluoro-4′-trifluoromethylbiphenyl-4-sulfonic acid-(4-hydroxybutyl)-amide] | 5 ± 1
O=[N+]([O-])c1cccc(-c2ccc(S(=O)(=O)NCCCCO)cc2)c1 [ABD-226, 3′-Nitrobiphenyl-4-sulfonic acid-(4-hydroxybutyl)-amide] | 33 ± 3

SMILES | IC50 [µM]
O=S(=O)(NCCCCCO)c1ccc(-c2ccc(-c3ccccc3)cc2)cc1 [ABD-279, p-Terphenyl-4-sulfonic acid-(5-hydroxypentyl)-amide] | 33 ± 5
O=S(=O)(NCCCCO)c1ccc(-c2ccccc2)cc1C(F)(F)F [ABD-310, 3-Trifluoromethylbiphenyl-4-sulfonic acid-(4-hydroxybutyl)-amide] | 4.5 ± 1
O=S(=O)(NCCCCO)c1ccc(-c2ccc(F)cc2F)cc1Cl [ABD-325, 3-Chloro-2′,4′-difluoro-biphenyl-4-sulfonic acid-(4-hydroxybutyl)-amide] | 2.5 ± 0.5
N#Cc1ccc(-c2ccc(S(=O)(=O)NCCCCCO)cc2)cc1 [ABD-262, 4′-Cyanobiphenyl-4-sulfonic acid-(5-hydroxypentyl)-amide] | 12 ± 2
O=S(=O)(NCCCCO)c1ccc(-c2ccc(Br)cc2F)cc1 [ABD-265, 4′-Bromo-2′-fluorobiphenyl-4-sulfonic acid-(4-hydroxybutyl)-amide] | 3 ± 1
COc1ccccc1-c1ccc(S(=O)(=O)NCCCCCO)cc1 [ABD-267, 2′-Methoxybiphenyl-4-sulfonic acid-(5-hydroxypentyl)-amide] | 31 ± 4
O=S(=O)(NCCCCCO)c1ccc(-c2ccccc2)cc1 [ABD-180, Biphenyl-4-sulfonic acid-(5-hydroxypentyl)-amide] | 20 ± 3
O=S(=O)(NCCCCCO)c1ccc(-c2ccc(F)cc2F)cc1 [ABD-248, 2′,4′-Difluorobiphenyl-4-sulfonic acid-(5-hydroxypentyl)-amide] | 4.5 ± 1
O=S(=O)(NCCCCO)c1ccc(-c2ccc(OC(F)(F)F)cc2)cc1 [ABD-306, 4′-Trifluoromethoxybiphenyl-4-sulfonic acid-(4-hydroxybutyl)-amide] | 8 ± 1
CC(=O)c1ccc(-c2ccc(S(=O)(=O)NCCCCCO)cc2)cc1 [ABD-261, 4′-Acetylbiphenyl-4-sulfonic acid-(5-hydroxypentyl)-amide] | 11 ± 2
Nc1ccccc1-c1ccc(S(=O)(=O)NCCCCO)cc1 [ABD-263, 2′-Aminobiphenyl-4-sulfonic acid-(4-hydroxybutyl)-amide] | 24 ± 3
CN(C)c1ccc(-c2ccc(S(=O)(=O)NCCCCCO)cc2)cc1 [ABD-276, 4′-Dimethylaminobiphenyl-4-sulfonic acid-(5-hydroxypentyl)-amide] | 32 ± 3
O=S(=O)(NCCCCO)c1ccc(-c2ccc(Br)cc2)cc1 [ABD-201, 4′-Bromobiphenyl-4-sulfonic acid-(4-hydroxybutyl)-amide] | 9 ± 2
CSc1ccc(-c2ccc(S(=O)(=O)NCCCCO)cc2)cc1 [ABD-258, 4′-Methylthiobiphenyl-4-sulfonic acid-(4-hydroxybutyl)-amide] | 35 ± 6
O=S(=O)(NCCCCO)c1ccc(-c2ccc(F)cc2F)cc1OC(F)(F)F [ABD-360, 2′,4′-Difluoro-3-trifluoromethoxybiphenyl-4-sulfonic acid-(4-hydroxybutyl)-amide] | 1 ± 0.3
CCOc1ccc(-c2ccc(S(=O)(=O)NCCCCCO)cc2)cc1 [ABD-297, 4′-Ethoxybiphenyl-4-sulfonic acid-(5-hydroxypentyl)-amide] | 35 ± 5

Same assay, conditions: Mus musculus, J774, 72 h, after 72 hours exposure, FIG. 1, read-out: IC50 against J774 macrophages (FIG. 1)

SMILES | IC50 [µM]
O=S(=O)(NCCCCO)c1ccc(-c2ccccc2)cc1 [ABD-155, Biphenyl-4-sulfonic acid-(4-hydroxybutyl)-amide] | < 20

Tested on: osteoblasts
Assay: Alamar Blue mouse osteoblast assay
Format: cell-based
Settings: osteoblast survival, after 72 hours exposure, FIG. 1, read-out: IC50 against osteoblasts (FIG. 1)
Procedure: Osteoblasts were isolated as described above and plated at 10^4 cells/well in 96-well plates in 100 μL of […]MEM supplemented with 10% FCS and antibiotics. Test compounds were added after 24 hours and left for 72 hours. Cell viability was assessed using the Alamar Blue assay as described for J774 macrophages. Alamar Blue (Biosource International) was added undiluted to each well (1:10 v/v, 10 μL). The plate was incubated at 37° C. for 3 to 4 hours and the fluorescence was measured at 570 nm, with a 25 nm bandwidth.
Osteoblast Isolation. Briefly, osteoblasts were isolated from the calvarial bones of 2-day-old mice by sequential collagenase digestion (type I collagenase, Sigma) and cultured in αMEM supplemented with 10% FCS (foetal calf serum) and penicillin and streptomycin at 37° C. in 5% CO2.
More specifically, osteoblasts were obtained from a collagenase digestion of the calvaria (skull bones) of 2-3 day old neo-natal C57/bl6 mice. At this stage in their development these are soft and easily removed. The calvaria from 5-6 mice were carefully dissected and washed in HBSS (Hank's balanced saline solution). The calvaria were placed in a 15 mL tube and shaken at 37° C. in 4 mL collagenase (10 mg/ml) for 10 minutes. This removes the excess unwanted tissue. The liquid was disposed of and a further 4 mL collagenase (10 mg/ml) added to the tube. […]

SMILES | IC50 [µM]
O=S(=O)(NCCCCO)c1ccc(-c2ccccc2)cc1 [ABD-155, Biphenyl-4-sulfonic acid-(4-hydroxybutyl)-amide] | > 100
